Results reported in US20240067693A1, “POLYPEPTIDES AND USES THEREOF” (MEDIMMUNE LIMITED, priority 2020, published 2024).
Numbered stars: 1 amine (or outer) side, 2 acyl side, 3 side chain; on linkers, the order of the positions; unused ones are H or OH. Bridge positions count the residues as written; N and C are the ends. Square brackets hold non-standard residues; d marks the D form. Side chains are listed from the residue outwards. Peptide text beside a SMILES is read from it. * marks the point of attachment. C18 diacid = O=C(O)CCCCCCCCCCCCCCCCC(=O)*; γGlu = O=C(O)[C@H](CCC(=O)[*:2])N[*:1]; Aib = CC(C)(N)C(=O)O

Experiments:
[1] = biological target: T1, human amylin receptor (calcitonin receptor co-expressed with receptor activity modifying protein, RAMP3) (hAMYR3) (Homo sapiens, UniProt O60896+P30988); assay: cAMP production in 1321N1 cells with stable recombinant expression of human amylin receptor (hAMYR3); format: cell-based; conditions: for Ratio (selectivity hAMYR vs hCTR, ratio of EC50 values at the two receptors): EC50 hCTR / EC50 hAMYR3; for EC50: cAMP, 1321N1 cells, assay buffer with 0.1% BSA, read-out: EC50 (pM) hAMYR3
T1 construct: expressed in transfected cells
T1 sequence (P30988 25-474): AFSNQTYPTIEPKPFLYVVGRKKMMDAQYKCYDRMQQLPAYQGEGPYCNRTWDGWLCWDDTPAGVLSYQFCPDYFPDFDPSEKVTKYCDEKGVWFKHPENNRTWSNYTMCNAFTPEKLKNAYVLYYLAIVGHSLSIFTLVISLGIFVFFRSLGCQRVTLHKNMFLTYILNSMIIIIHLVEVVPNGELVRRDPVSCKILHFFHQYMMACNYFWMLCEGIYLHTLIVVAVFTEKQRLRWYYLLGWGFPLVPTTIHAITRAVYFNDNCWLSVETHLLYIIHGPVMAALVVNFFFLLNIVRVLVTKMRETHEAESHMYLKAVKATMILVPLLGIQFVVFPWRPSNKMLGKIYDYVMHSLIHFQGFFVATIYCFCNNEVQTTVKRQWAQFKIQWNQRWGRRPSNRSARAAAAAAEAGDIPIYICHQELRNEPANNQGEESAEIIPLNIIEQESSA
T1 sequence (O60896 24-148 partner): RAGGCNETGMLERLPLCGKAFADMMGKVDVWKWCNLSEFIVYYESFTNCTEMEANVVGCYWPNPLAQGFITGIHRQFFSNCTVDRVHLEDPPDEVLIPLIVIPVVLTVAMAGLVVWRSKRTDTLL
In short: (§1)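 Receptor-expressing cells (human receptors in 1321N1, rat receptors in HEK) incubated 30 min at room temperature with peptide in HBSS/HEPES pH 7.4, 0.1% BSA, 0.5 mM IBMX. cAMP read by HTRF; EC50 from 4-parameter fit as % of maximal amylin or calcitonin response.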

[2] = biological target: T2, human calcitonin receptor (hCTR) (Homo sapiens, UniProt P30988); assay: cAMP production in 1321N1 cells with stable recombinant expression of human calcitonin receptor (hCTR); format: cell-based; conditions: cAMP, 1321N1 cells, assay buffer with 0.1% BSA; read-out: EC50 (pM) hCTR
T2 construct: expressed in transfected cells
T2 sequence (P30988 25-474): T1 sequence (P30988 25-474)
In short: as §1

Row | Compound | Ratio (selectivity hAMYR vs hCTR, ratio of EC50 values at the two receptors) [1] | EC50 [1] [pM] | EC50 [2] [pM]
1 | CC[C@H](C)[C@H](NC(=O)[C@@H]1CCCN1C(=O)CNC(=O)[C@H](Cc1ccccc1)NC(=O)[C@H](CC(N)=O)NC(=O)C(C)(C)NC(=O)[C@H](CO)NC(=O)[C@H](CO)NC(=O)[C@H](Cc1c[nH]cn1)NC(=O)[C@@H](NC(=O)[C@H](CC(C)C)NC(=O)[C@H](Cc1ccccc1)NC(=O)[C@H](CC(N)=O)NC(=O)[C@H](C)NC(=O)[C@H](CC(C)C)NC(=O)[C@H](CCCNC(=N)N)NC(=O)[C@H](CCC(N)=O)NC(=O)[C@@H](NC(=O)[C@H](C)NC(=O)[C@@H]1CSSC[C@H](NC(=O)[C@@H](N)CCCCNC(=O)CC[C@H](NC(=O)CCCCCCCCCCCCCCCCC(=O)O)C(=O)O)C(=O)N[C@@H](CC(N)=O)C(=O)N[C@@H]([C@@H](C)O)C(=O)N[C@@H](C)C(=O)N[C@@H]([C@@H](C)O)C(=O)N1)[C@@H](C)O)C(C)C)C(=O)N[C@H](CC(C)C)C(=O)N1CCC[C@H]1C(=O)N1CCC[C@H]1C(=O)N[C@H](C(=O)N[C@@H](CC(N)=O)C(=O)N[C@H](C(=O)NCC(=O)N[C@@H](CO)C(=O)N[C@@H](CC(N)=O)C(=O)N[C@H](C(=O)N[C@@H](Cc1ccc(O)cc1)C(N)=O)[C@@H](C)O)C(C)C)[C@@H](C)O [Peptide 59, K(γE-C18diacid)[CNTATC]ATQRLANFLVHSS(Aib)NFGPI(dL)PPTNVGSNTY-amide] (H-K([γGlu-C18 diacid])CNTATCATQRLANFLVHSS[Aib]NFGPI[dL]PPTNVGSNTY-NH2; disulfide 2-7; N-terminus assumed) | 5 | 157 | 809
2 | CC[C@H](C)[C@H](NC(=O)[C@@H]1CCCN1C(=O)CNC(=O)[C@H](Cc1ccccc1)NC(=O)[C@H](CC(N)=O)NC(=O)C(C)(C)NC(=O)[C@H](CO)NC(=O)[C@H](CO)NC(=O)[C@H](Cc1c[nH]cn1)NC(=O)[C@@H](NC(=O)[C@H](CC(C)C)NC(=O)[C@H](Cc1ccccc1)NC(=O)[C@H](CC(N)=O)NC(=O)[C@H](C)NC(=O)[C@H](CC(C)C)NC(=O)[C@H](CCCNC(=N)N)NC(=O)[C@H](CCC(N)=O)NC(=O)[C@@H](NC(=O)[C@H](C)NC(=O)[C@@H]1CSSC[C@H](NC(=O)[C@@H](N)CCCCNC(=O)CC[C@H](NC(=O)CCCCCCCCCCCCCCCCC(=O)O)C(=O)O)C(=O)N[C@@H](CC(N)=O)C(=O)N[C@@H]([C@@H](C)O)C(=O)N[C@@H](C)C(=O)N[C@@H]([C@@H](C)O)C(=O)N1)[C@@H](C)O)C(C)C)C(=O)N[C@@H](CC(C)C)C(=O)N1CCC[C@@H]1C(=O)N1CCC[C@H]1C(=O)N[C@H](C(=O)N[C@@H](CC(N)=O)C(=O)N[C@H](C(=O)NCC(=O)N[C@@H](CO)C(=O)N[C@@H](CC(N)=O)C(=O)N[C@H](C(=O)N[C@@H](Cc1ccc(O)cc1)C(N)=O)[C@@H](C)O)C(C)C)[C@@H](C)O [Peptide 60, K(γE-C18diacid)[CNTATC]ATQRLANFLVHSS(Aib)NFGPIL(dP)PTNVGSNTY-amide] (H-K([γGlu-C18 diacid])CNTATCATQRLANFLVHSS[Aib]NFGPIL[dP]PTNVGSNTY-NH2; disulfide 2-7; N-terminus assumed) | 11 | 96 | 1030
3 | CC[C@H](C)[C@H](NC(=O)[C@@H]1CCCN1C(=O)CNC(=O)[C@H](Cc1ccccc1)NC(=O)[C@H](CC(N)=O)NC(=O)C(C)(C)NC(=O)[C@H](CO)NC(=O)[C@H](CO)NC(=O)[C@H](Cc1c[nH]cn1)NC(=O)[C@@H](NC(=O)[C@H](CC(C)C)NC(=O)[C@H](Cc1ccccc1)NC(=O)[C@H](CC(N)=O)NC(=O)[C@H](C)NC(=O)[C@H](CC(C)C)NC(=O)[C@H](CCCNC(=N)N)NC(=O)[C@H](CCC(N)=O)NC(=O)[C@@H](NC(=O)[C@H](C)NC(=O)[C@@H]1CSSC[C@H](NC(=O)[C@@H](N)CCCCNC(=O)CC[C@H](NC(=O)CCCCCCCCCCCCCCCCC(=O)O)C(=O)O)C(=O)N[C@@H](CC(N)=O)C(=O)N[C@@H]([C@@H](C)O)C(=O)N[C@@H](C)C(=O)N[C@@H]([C@@H](C)O)C(=O)N1)[C@@H](C)O)C(C)C)C(=O)N[C@@H](CC(C)C)C(=O)N1CCC[C@H]1C(=O)N1CCC[C@H]1C(=O)N[C@H](C(=O)N[C@@H](CCCNC(=N)N)C(=O)N[C@H](C(=O)NCC(=O)N[C@@H](CO)C(=O)N[C@@H](CC(N)=O)C(=O)N[C@H](C(=O)N[C@@H](Cc1ccc(O)cc1)C(N)=O)[C@@H](C)O)C(C)C)[C@@H](C)O [Peptide 63, K(γE-C18diacid)[CNTATC]ATQRLANFLVHSS(Aib)NFGPILPPTRVGSNTY-amide] (H-K([γGlu-C18 diacid])CNTATCATQRLANFLVHSS[Aib]NFGPILPPTRVGSNTY-NH2; disulfide 2-7; N-terminus assumed) | 5 | 76 | 375

Results, then the compound that gave them:

Row | Ratio (selectivity hAMYR vs hCTR, ratio of EC50 values at the two receptors) [1] | EC50 [1] [pM] | EC50 [2] [pM] | Compound
4 | 7 | 99 | 654 | CC[C@@H](C)[C@@H](NC(=O)[C@@H]1CCCN1C(=O)CNC(=O)[C@H](Cc1ccccc1)NC(=O)[C@H](CC(N)=O)NC(=O)C(C)(C)NC(=O)[C@H](CO)NC(=O)[C@H](CO)NC(=O)[C@H](Cc1c[nH]cn1)NC(=O)[C@@H](NC(=O)[C@H](CC(C)C)NC(=O)[C@H](Cc1ccccc1)NC(=O)[C@H](CC(N)=O)NC(=O)[C@H](C)NC(=O)[C@H](CC(C)C)NC(=O)[C@H](CCCNC(=N)N)NC(=O)[C@H](CCC(N)=O)NC(=O)[C@@H](NC(=O)[C@H](C)NC(=O)[C@@H]1CSSC[C@H](NC(=O)[C@@H](N)CCCCNC(=O)CC[C@H](NC(=O)CCCCCCCCCCCCCCCCC(=O)O)C(=O)O)C(=O)N[C@@H](CC(N)=O)C(=O)N[C@@H]([C@@H](C)O)C(=O)N[C@@H](C)C(=O)N[C@@H]([C@@H](C)O)C(=O)N1)[C@@H](C)O)C(C)C)C(=O)N[C@@H](CC(C)C)C(=O)N1CCC[C@H]1C(=O)N1CCC[C@H]1C(=O)N[C@H](C(=O)N[C@@H](CC(N)=O)C(=O)N[C@H](C(=O)NCC(=O)N[C@@H](CO)C(=O)N[C@@H](CC(N)=O)C(=O)N[C@H](C(=O)N[C@@H](Cc1ccc(O)cc1)C(N)=O)[C@@H](C)O)C(C)C)[C@@H](C)O [Peptide 61, K(γE-C18diacid)[CNTATC]ATQRLANFLVHSS(Aib)NFGP(dl)LPPTNVGSNTY-amide] (H-K([γGlu-C18 diacid])CNTATCATQRLANFLVHSS[Aib]NFGP[dI]LPPTNVGSNTY-NH2; disulfide 2-7; N-terminus assumed)
5 | 43 | 167 | 7250 | CC[C@H](C)[C@H](NC(=O)[C@@H]1CCCN1C(=O)CNC(=O)[C@H](Cc1ccccc1)NC(=O)[C@H](CC(N)=O)NC(=O)C(C)(C)NC(=O)[C@H](CO)NC(=O)[C@H](CO)NC(=O)[C@H](Cc1c[nH]cn1)NC(=O)[C@@H](NC(=O)[C@@H](CC(C)C)NC(=O)[C@H](Cc1ccccc1)NC(=O)[C@H](CC(N)=O)NC(=O)[C@H](C)NC(=O)[C@H](CC(C)C)NC(=O)[C@H](CCCNC(=N)N)NC(=O)[C@H](CCC(N)=O)NC(=O)[C@@H](NC(=O)[C@H](C)NC(=O)[C@@H]1CSSC[C@H](NC(=O)[C@@H](N)CCCCNC(=O)CC[C@H](NC(=O)CCCCCCCCCCCCCCCCC(=O)O)C(=O)O)C(=O)N[C@@H](CC(N)=O)C(=O)N[C@@H]([C@@H](C)O)C(=O)N[C@@H](C)C(=O)N[C@@H]([C@@H](C)O)C(=O)N1)[C@@H](C)O)C(C)C)C(=O)N[C@@H](CC(C)C)C(=O)N1CCC[C@H]1C(=O)N1CCC[C@H]1C(=O)N[C@H](C(=O)N[C@@H](CC(N)=O)C(=O)N[C@H](C(=O)NCC(=O)N[C@@H](CO)C(=O)N[C@@H](CC(N)=O)C(=O)N[C@H](C(=O)N[C@@H](Cc1ccc(O)cc1)C(N)=O)[C@@H](C)O)C(C)C)[C@@H](C)O [Peptide 62, K(γE-C18diacid)[CNTATC]ATQRLANF(dL)VHSS(Aib)NFGPILPPTNVGSNTY-amide] (H-K([γGlu-C18 diacid])CNTATCATQRLANF[dL]VHSS[Aib]NFGPILPPTNVGSNTY-NH2; disulfide 2-7)
